# From US20240139167A1, “LYSOSOME-ASSOCIATED MEMBRANE PROTEIN TARGETING COMPOUNDS AND USES THEREOF” (HADASIT MEDICAL RESEARCH SERVICES AND DEVELOPMENT LTD., priority 2021, published 2024)
# Experiments:
# [1] = tested on: LAMP1-KD and GFP control APBD primary fibroblasts; assay: LAMP1 knockdown: autophagic flux, lysosomal pH (Lysosensor), PAS glycogen; type: cell-based, human
# Description: (§1) FIGS. 6A-6E include bar graphs of autophagic flux, determined by the extent of lysosomal inhibitors-dependent increase in the ratio of lipidated to non-lipidated LC3 (LC3II/LC3I) (6A); representative TEM images of liver tissue from 9.5 month old Gbe^ys/ys mice treated with Compound 11, or 5% DMSO vehicle (6B), G: Glycogen (alpha particles) and polyglucosan (structures with variable electron densities), L: Lysosomes, M: Mitochondria; right panel: lysosomal glycogen stain was quantified by ImageJ “count particle” tool; micrograph of LAMP1 knocked down and control APBD primary skin fibroblasts treated or not with Compound 1 and lysosomal inhibitors (LI) and quantification of 3 experiments and results of Student's t-tests. *, p<0.1; **, p<0.05; ***, p<0.01 (6C); graphs of lysosomal pH changes determined in APBD primary fibroblasts transduced with lentiviruses encoding for GFP or GFP-shLAMP1 and treated or not with Compound 1 for 24 h and confocal microscope images of cells treated with Lysosensor and stained for PAS (6D); and bar graph of ATP production rate assay in LAMP1-KD and GFP (Control) cells treated for 24 h (chronic) or on assay (acute) with Compound 1 (6E).
# To determine the functional importance of the interaction between Compound 1 and LAMP1, the inventors knocked down the latter using a lentiviral vector carrying GFP tagged shRNA against LAMP1. […] Furthermore, to test whether LAMP1-KD and Compound 1 enhanced autophagic flux by improving lysosomal function, the inventors quantified lysosomal acidification using the pH ratiometric dye Lysosensor™, which quantifies pH based on the yellow/blue emission ratio. […] The inventors show by flow cytometry (FIG. 6D, upper panel) the overall cellular acidification as an increase in 375 nm-excited yellow/blue emission, and by confocal microscopy that this acidification is associated with brighter yellow fluorescence in lysosomes (FIG. 6D, middle panel).
# [2] = biological target: T1, deglycosylated luminal LAMP1 domain (Homo sapiens, UniProt P11279); assay: SPR with chemically deglycosylated LAMP1; type: binding
# T1 construct: repeated the SPR experiments with a chemically deglycosylated luminal LAMP1 domain
# T1 sequence (P11279 29-382): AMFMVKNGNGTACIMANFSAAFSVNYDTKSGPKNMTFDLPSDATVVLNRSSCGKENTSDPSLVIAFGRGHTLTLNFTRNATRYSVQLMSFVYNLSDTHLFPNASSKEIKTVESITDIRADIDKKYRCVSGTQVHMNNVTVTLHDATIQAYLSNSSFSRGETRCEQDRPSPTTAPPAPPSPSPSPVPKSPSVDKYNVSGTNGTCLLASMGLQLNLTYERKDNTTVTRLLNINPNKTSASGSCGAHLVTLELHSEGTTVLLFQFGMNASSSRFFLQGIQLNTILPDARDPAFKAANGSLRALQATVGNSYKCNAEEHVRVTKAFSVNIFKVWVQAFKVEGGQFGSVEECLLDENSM
# Protocol: The inventors have investigated the mechanism of action of 144DG11. To that end, the inventors first decided to determine its molecular target. Nematic protein organization technique (NPOT, Inoviem, Ltd.) was applied to homogenates of APBD patient fibroblasts. The NPOT analysis has discovered protein hetero assemblies uniquely generated around 144DG11 only when it was added to the cell homogenates (FIG. 5A). The next step in this analysis has identified the interactome of protein targets interacting with 144DG11 in APBD patients' fibroblasts. […] Moreover, the inventors have tested by cellular thermal shift assay the specific interaction of 144DG11 with 6 of the 8 targets discovered by NPOT. […] This finding relates to a novel pathogenic hypothesis connecting cellular glycogen overload with glycogen trafficking to lysosomes via Starch Binding Domain containing Protein 1. To validate 144DG11's interaction with LAMP1, the inventors have used surface plasmon resonance (SPR) technology. […] The inventors hypothesized that this slow rate of association could be explained by inhibited diffusion of 144DG11 due to the bulky oligosaccharides at the glycosylation sites. […] In the search for a putative binding site for Compound 1 in LAMP1, the inventors have analyzed the N- and C-terminal subdomains of its luminal domain (residues A29-R195 and S217-D378, respectively), which have a similar topology. […]
# [3] = tested on: LAMP1-KD and control APBD fibroblasts; assay: ATP Rate Assay in LAMP1-KD and control cells; type: cell-based, human
# Description: as §1
# To test the effect of LAMP1-KD and Compound 1 on fuel utilization, the inventors again used the ATP Rate Assay (FIGS. 4A-4D) in LAMP1-KD and control APBD fibroblasts acutely or chronically treated with Compound 1.
# APBD primary fibroblasts = assay: Autophagic flux (LC3II/LC3I with lysosomal inhibitors, p62); type: cell-based, human
# Description: as §1
# luminal portion of LAMP1 = biological target: T2, luminal portion of LAMP1 (Homo sapiens, UniProt P11279); assay: Surface plasmon resonance (SPR); type: binding
# T2 sequence (P11279 29-382 limits assumed): T1 sequence (P11279 29-382)
# Description: FIGS. 5A-5E include images of experiments showing hetero-assembly forms around Compound 1 and not around endogenous molecules as shown by the liquid crystals formed in experiments 1-3 (5A); image of STRING network of targets at the interactome of Compound 1 (5B); cellular thermal shift assay (CETSA) of different targets of the Compound 1 hetero-assembly (5C); surface plasmon resonance sensograms of binding of Compound 1 to LAMP1 (5D); sensogram experiments consisting of association and dissociation at the indicated concentration ranges and pH values were then conducted.
# The inventors have investigated the mechanism of action of 144DG11. To that end, the inventors first decided to determine its molecular target. Nematic protein organization technique (NPOT, Inoviem, Ltd.) was applied to homogenates of APBD patient fibroblasts. The NPOT analysis has discovered protein hetero assemblies uniquely generated around 144DG11 only when it was added to the cell homogenates (FIG. 5A). The next step in this analysis has identified the interactome of protein targets interacting with 144DG11 in APBD patients' fibroblasts. […] Moreover, the inventors have tested by cellular thermal shift assay the specific interaction of 144DG11 with 6 of the 8 targets discovered by NPOT. […] This finding relates to a novel pathogenic hypothesis connecting cellular glycogen overload with glycogen trafficking to lysosomes via Starch Binding Domain containing Protein 1. To validate 144DG11's interaction with LAMP1, the inventors have used surface plasmon resonance (SPR) technology. […] The inventors hypothesized that this slow rate of association could be explained by inhibited diffusion of 144DG11 due to the bulky oligosaccharides at the glycosylation sites. Therefore, the inventors have repeated the SPR experiments with a chemically deglycosylated luminal LAMP1 domain. […] The inventors have further investigated 144DG11 binding to LAMP1 by structure-based computational docking. In the search for a putative binding site for Compound 1 in LAMP1, the inventors have analyzed the N- and C-terminal subdomains of its luminal domain (residues A29-R195 and S217-D378, respectively), which have a similar topology. These domains were modeled and computationally docked against decoys to Compound 1 at the intralysosomal pH 5 based on the known crystal structure of mouse LAMP1 C-terminal domain (PDB ID 5gv0). […] However, they might still affect Compound 1 diffusion.
# Agl^−/− mice = assay: Blood metabolic panel in Agl^-/- mice (GSD3); type: in vivo; conditions: 6-months mice treated for 3 months
# Description: FIG. 18 includes a vertical bar graph showing blood metabolic panel based on n=5-6 6-months wildtype or Agl^−/− mice treated as indicated for 3 months.
smiles,measurement,setting,value
COCCN(Cc1sccc1C)C(=O)c1cc(C)nc(O)c1 [Compound 1],autophagic flux in LAMP1 knocked down cells,[1]; 24 h serum starvation,further enhanced
same,lysosomal pH (Lysosensor),"[1]; GFP and LAMP1-KD APBD cells, 24 h",led to lysosomal acidification
same,reduction of cellular glycogen levels by LAMP knockdown (PAS),[1]; GFP control and shLAMP1-GFP transduced,slightly enhanced
same,binding to deglycosylated LAMP1,[2],did not bind
same,ATP production,"[3]; LAMP1-KD cells, non-starved, chronic and acute",significantly increased total and respiratory ATP production
same,ATP production,"[3]; LAMP1-KD cells, starved, acute",increased both respiratory and glycolytic ATP
same,ATP production,"[3]; LAMP1-KD cells, starved, chronic",only respiratory ATP production increased
same,ATP production,"[3]; control cells, non-starved","only slightly influenced ATP production, and even acutely decreased it"
same,ATP production,"[3]; control cells, starved, acute",only increased respiratory ATP production
same,ATP production,"[3]; control cells, starved, chronic",No significant effect
same,autophagic flux (sensitivity of LC3ii/LC3i ratio to lysosomal inhibitors),APBD primary fibroblasts,increased autophagic flux
same,level of the autophagy substrate p62,APBD primary fibroblasts,lowering the level of the autophagy substrate p62
same,binding to LAMP1,luminal portion of LAMP1; cytoplasmic pH 7,not at the cytoplasmic pH 7
same,binding to LAMP1,luminal portion of LAMP1; intermediate pH 6,some binding starting
same,binding to LAMP1,luminal portion of LAMP1; lysosomal pH 4.5-5,specific and dose-dependent binding
same,kon (rate of association),luminal portion of LAMP1; pH 4.5,slow
same,Kd,luminal portion of LAMP1; read-out: apparent KD,6.3 mM
same,blood triglycerides,Agl^−/− mice,decreased
